Each structure is given as a SMILES string.

The term IC50 denotes the point on the concentration scale where inhibition reaches its midpoint.

The experiment deals with T1, MAGL (Homo sapiens, UniProt Q99685).
T1 sequence (Q99685 1-303): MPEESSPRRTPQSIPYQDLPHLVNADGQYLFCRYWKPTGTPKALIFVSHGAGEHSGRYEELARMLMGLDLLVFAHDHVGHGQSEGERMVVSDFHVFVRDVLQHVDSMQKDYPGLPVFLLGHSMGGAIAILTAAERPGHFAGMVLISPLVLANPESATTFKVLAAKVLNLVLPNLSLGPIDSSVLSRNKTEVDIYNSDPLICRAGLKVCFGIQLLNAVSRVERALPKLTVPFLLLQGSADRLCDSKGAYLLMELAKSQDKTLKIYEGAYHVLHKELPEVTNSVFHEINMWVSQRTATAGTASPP
As to the kind of experiment: 2-AG assay (MAGL inhibitory activity, hydrolysis of 2-arachidonoylglycerol followed by mass spectrometry). The settings on record: 50 pM MAGL, 8 μM 2-arachidonoylglycerol, 15 min pre-incubation, 30 min incubation at RT. Format: biochemical. The method, then: Compounds were profiled for MAGL inhibitory activity by determining the enzymatic activity by following the hydrolysis of the natural substrate 2-arachidonoylglycerol (2-AG) resulting in arachidonic acid, which can be followed by mass spectrometry. This assay is hereinafter abbreviated “2-AG assay”.
The 2-AG assay was carried out in 384 well assay plates (PP, Greiner Cat#784201) in a total volume of 20 μL. Compound dilutions were made in 100% DMSO (VWR Chemicals 23500.297) in a polypropylene plate in 3-fold dilution steps to give a final concentration range in the assay from 12.5 μM to 0.8 pM. […] compound dilutions (100% DMSO) were added to 9 μL MAGL in assay buffer (50 mM TRIS (GIBCO, 15567-027), 1 mM EDTA (Fluka, 03690-100 mL), 0.01% (v/v) Tween. After shaking, the plate was incubated for 15 min at RT. To start the reaction, 10 μL 2-arachidonoylglycerol in assay buffer was added. The final concentrations in the assay was 50 pM MAGL and 8 μM 2-arachidonoylglyerol. After shaking and 30 min incubation at RT, the reaction was quenched by the addition of […] of ACN containing 4 μM of d8-arachidonic acid. The amount of arachidonic acid was traced by an online SPE system (Agilent Rapidfire) coupled to a triple quadrupole mass spectrometer (Agilent 6460). A C18 SPE cartridge (G9205A) was used in an ACN/water liquid setup. The mass spectrometer was operated in negative electrospray mode following the mass transitions 303.1→259.1 for arachidonic acid and 311.1→267.0 for d8-arachidonic acid. The activity of the compounds was calculated based on the ratio of intensities [arachidonic acid/d8-arachidonic acid].

Compound `NCCOCCOCCOCCC(=O)NCCOc1cccc([C@H](c2ccccc2)C2CCN(C(=O)N3CC[C@@H]4OCC(=O)N[C@@H]4C3)CC2)c1` (single isomer, unassigned) [Example 20, N-[2-[3-[(S or R)-[1-1(4aR,8aS)-3-Oxo-4,4a,5,7,8,8a-hexahydropyrido[4,3-b]11,4]oxazine-6-carbonyl]-4-piperidyfl-phenyl-methyl]phenoxy]ethyl]-3-[2-[2-(2-aminoethoxy)ethoxy]ethoxy]propanamide] yielded an IC50 of 11.4 nM. With `O=C(CCOCCNC(=O)CCc1ccc2n1[B-](F)(F)[N+]1=C(c3ccc[nH]3)C=CC1=C2)NCCOc1cccc(C(c2ccccc2)C2CCN(C(=O)N3CC[C@@H]4OCC(=O)N[C@@H]4C3)CC2)c1` (single isomer, unassigned) [Example 21, N-[2-[3-[2-[3-[(S or R)-[1-[(4aR,8aS)-3-oxo-4,4a,5,7,8,8a-hexahydropyrido[4,3-b][1,4]oxazine-6-carbonyl]-4-piperidyl]-phenyl-methyl]phenoxy]ethylamino]-3-oxo-propoxy]ethyl]-3-12,2-difluoro-12-(1H-pyrrol-2-yl)-3-aza-1-azonia-2-boranuidatricyclo[7.3.0.03,7]dodeca-1(12),4,6,8,10-pentaen-4-yl]propanamide], it took 0.3 nM to reach half-maximal inhibition (IC50). For `O=C(CCOCCOCCOCCNc1ccc([N+](=O)[O-])c2nonc12)NCCOc1cccc([C@H](c2ccccc2)C2CCN(C(=O)N3CC[C@@H]4OCC(=O)N[C@@H]4C3)CC2)c1` (single isomer, unassigned) [Example 22, N-[2-[3-[(S or R)-11-1(4aR,8aS)-3-oxo-4,4a,5,7,8,8a-hexahydropyrido[4,3-b][1,4]oxazine-6-carbonyl]-4-piperidyl]-phenyl-methyl]phenoxy]ethyl]-3-[2-[2-[2-[(4-nitro-2,1,3-benzoxadiazol-7-yl)amino]ethoxy]ethoxy]ethoxy]propanamide], the IC50 is 0.4 nM.

As to `O=C(CCOCCOCCOCCNc1ccc([N+](=O)[O-])c2nonc12)NCCOc1cccc(C(c2ccccc2)C2CCN(C(=O)N3CC[C@@H]4OCC(=O)N[C@@H]4C3)CC2)c1` (stereo partly drawn) [Example 1, 3-(2-(2-(2-((7-Nitrobenzo[c][1,2,5]oxadiazol-4-yl)amino)ethoxy)ethoxy)ethoxy)-N-(2-(3-((1-((4aR,8aS)-3-oxooctahydro-2H-pyrido[4,3-b][1,4]oxazine-6-carbonyl)piperidin-4-yl)(phenyl)methyl)phenoxy)ethyl)propanamide], the midpoint of inhibition, the IC50, lay at 1 nM.

In turn, `O=C(CCOCCNc1ccc([N+](=O)[O-])c2nonc12)NCCOc1cccc(C(c2ccccc2)C2CCN(C(=O)N3CC[C@@H]4OCC(=O)N[C@@H]4C3)CC2)c1` (stereo partly drawn) [Example 2] came in with an IC50 of 1.2 nM.

Consider `O=C(CCOCCOCCNc1ccc([N+](=O)[O-])c2nonc12)NCCOc1cccc(C(c2ccccc2)C2CCN(C(=O)N3CC[C@@H]4OCC(=O)N[C@@H]4C3)CC2)c1` (stereo partly drawn) [Example 3, 3-(2-(2-((7-Nitrobenzo[c][1,2,5]oxadiazol-4-yl)amino)ethoxy)ethoxy)-N-(2-(3-((1-((4aR,8aS)-3-oxooctahydro-2H-pyrido[4,3-b][1,4]oxazine-6-carbonyl)piperidin-4-yl)(phenyl)methyl)phenoxy)ethyl)propanamide], for which the midpoint of inhibition, the IC50, lay at 2.1 nM. `CC(C)(C)OC(=O)NCCOc1cccc(C(=C2CCN(C(=O)N3CC[C@@H]4OCC(=O)N[C@@H]4C3)CC2)c2ccccc2)c1` [Example 23, tert-Butyl (2-(3-((1-((4aR,8aS)-3-oxooctahydro-2H-pyrido[4,3-b][1,4]oxazine-6-carbonyl)piperidin-4-ylidene)(phenyl)methyl)phenoxy)ethyl)carbamate]: the half-inhibitory concentration (IC50) was found to be 5.8 nM. The compound `O=C1CO[C@H]2CCN(C(=O)N3CCC(=C(c4ccccc4)c4cccc(OCCNc5ccc([N+](=O)[O-])c6nonc56)c4)CC3)C[C@H]2N1` [Example 24] had a 50% inhibitory concentration (IC50) of 5.5 nM. With `CC(C)(C)OC(=O)NCCOc1ccc(C(=C2CCN(C(=O)N3CC[C@@H]4OCC(=O)N[C@@H]4C3)CC2)c2ccccc2)cc1` [Example 25, tert-Butyl (2-(4-((1-((4aR,8aS)-3-oxooctahydro-2H-pyrido[4,3-b][1,4]oxazine-6-carbonyl)piperidin-4-ylidene)(phenyl)methyl)phenoxy)ethyl)carbamate], the IC50 was 13 nM.

For the origin of these results see patent US20220220373A1, “FLUORESCENT PROBES FOR MONOACYLGLYCEROL LIPASE (MAGL)” (Hoffmann-La Roche Inc., priority 2019, published 2022).
